The results in this text go back to patent publication US8916555B2, “3,5-diaminopyrazole kinase inhibitors” (Axikin Pharmaceuticals, Inc., priority 2012, dated 2014).

Where only a bound is given, the exact number is not on record here.

Series [1] addresses T1, kinase domain protein of RC kinase (Homo sapiens, UniProt Q56UN5).
T1 sequence (Q56UN5 1061-1324 limits assumed): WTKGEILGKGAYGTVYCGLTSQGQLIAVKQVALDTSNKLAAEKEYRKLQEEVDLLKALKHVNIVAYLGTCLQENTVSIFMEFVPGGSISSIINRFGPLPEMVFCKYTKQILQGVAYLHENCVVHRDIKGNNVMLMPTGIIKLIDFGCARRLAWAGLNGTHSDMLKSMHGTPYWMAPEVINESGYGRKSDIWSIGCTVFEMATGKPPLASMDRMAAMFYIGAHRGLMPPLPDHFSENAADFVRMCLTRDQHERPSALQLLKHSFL
Kind of series: Enzymatic assay for kinase inhibitory activity (Crebtide substrate, LANCE readout), kinase domain protein. The format is biochemical. The note with it: test compound 1 μM, ATP 1 μM, Crebtide 50 nM. An outline of the steps: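 Kinase domain (1 mg/mL final) with 50 nM Crebtide and 1 μM ATP in MAPK buffer (50 mM HEPES, 10 mM MgCl2, 2 mM DTT, 0.01% Tween 20), 45 min RT. Compound at 1 μM or 1×IC50, duplicate. EDTA/anti-Crebtide stop, 45 min development, LANCE 665/615 nm; % inhibition at 1 μM binned A–D.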

`NC(=O)c1c(Nc2ccc(-n3ccnc3)cc2)n[nH]c1NCc1ccc(O)cc1` [Compound D60]: the melting point lay in the range of 228 to 231 °C. The same compound showed an inhibition at 1 µM in series [1] of no less than 50%.

`NC(=O)c1c(Nc2ccc(N3CCOCC3)nc2)n[nH]c1NCc1ccc(O)cc1` [Compound D118] yielded a melting point of 199 to 203 °C. The inhibition at 1 µM in series [1] was no less than 50%.

With `CN(C)c1ccc(CNc2[nH]nc(Nc3cccnc3)c2C(N)=O)c2ccccc12` [Compound D42, 5-(((4-(dimethylamino)naphthalen-1-yl)methyl)amino)-3-(pyridin-3-ylamino)-1H-pyrazole-4-carboxamide], the melting point lay within 225 to 229 °C. This compound also showed an inhibition at 1 µM in series [1] of 20 to 50%.

`COc1ccc(Nc2n[nH]c(NCc3ccc(O)cc3)c2C(N)=O)cc1` [Compound D162, 5-((4-hydroxybenzyl)amino)-3-((4-methoxyphenyl)amino)-1H-pyrazole-4-carboxamide] registered a melting point of 176 to 180 °C. Also, in series [1], the inhibition at 1 µM was no less than 50%.

Consider `NC(=O)c1c(Nc2ccc(N3CCOC(=O)C3)cc2)n[nH]c1NCc1ccc(O)cc1` [Compound D99, 5-((4-hydroxybenzyl)amino)-3-((4-(2-oxomorpholino)phenyl)amino)-1H-pyrazole-4-carboxamide], for which the melting point is 194 to 197 °C. Moreover, in series [1], the inhibition at 1 µM was no less than 50%.

The compound `NC(=O)c1c(Nc2cccnc2)n[nH]c1NCc1ccc(Cl)cc1` [Compound D154, 5-((4-chlorobenzyl)amino)-3-(pyridin-3-ylamino)-1H-pyrazole-4-carboxamide] yielded a melting point of 228 to 231 °C. The compound further yielded an inhibition at 1 µM in series [1] of 5 to 20%.

As for `CCc1cccc(Nc2n[nH]c(NCc3ccc(O)cc3)c2C(N)=O)c1` [Compound D68, 3-((3-ethylphenyl)amino)-5-((4-hydroxybenzyl)amino)-1H-pyrazole-4-carboxamide], the melting point lay within 208 to 212 °C. The same compound had an inhibition at 1 µM in series [1] of no less than 50%.

Regarding `NC(=O)c1c(Nc2ccc(Br)c(Cl)c2)n[nH]c1NCc1ccc(O)cc1` [Compound D160, 3-((4-bromo-3-chlorophenyl)amino)-5-((4-hydroxybenzyl)amino)-1H-pyrazole-4-carboxamide], the melting point was in the range of 199 to 204 °C. This compound showed an inhibition at 1 µM in series [1] of 20 to 50%.

The compound `CCOC(=O)c1cccc(Nc2n[nH]c(NCc3ccc(O)cc3)c2C(N)=O)c1` [Compound D67, ethyl 3-((4-carbamoyl-5-((4-hydroxybenzyl)amino)-1H-pyrazol-3-yl)amino)benzoate] yielded a melting point of 132 to 136 °C. The inhibition at 1 µM in series [1] is no less than 50%.

The compound `COc1cc(CNc2[nH]nc(NCc3ccc(O)cc3)c2C(N)=O)ccc1F` [Compound D105] yielded a melting point of 180 to 184 °C. This compound yielded an inhibition at 1 µM in series [1] of 20 to 50%.

`NC(=O)c1c(Nc2cccc(Cl)c2)n[nH]c1NCc1ccc[nH]1` [Compound D59] returned a melting point of 193 to 198 °C. This compound returned an inhibition at 1 µM in series [1] of 5 to 20%.

On to `NC(=O)c1c(Nc2cccc(Cl)c2)n[nH]c1NCc1ccc(Oc2ncccn2)cc1` [Compound D32, 3-((3-chlorophenyl)amino)-5-((4-(pyrimidin-2-yloxy)benzyl)amino)-1H-pyrazole-4-carboxamide], for which the melting point is 193 to 199 °C. Moreover, the “Activity (inhibition of the RC kinase activity at 1 μM)” value in series [1] was “B (no greater than 50% but at least 20% inhibition of the RC kinase activity at 1 μM)”.

On to `N#Cc1c(Nc2cccc(Cl)c2)n[nH]c1NCc1ccc(O)cc1` [Compound C31, 3-((3-chlorophenyl)amino)-5-((4-hydroxybenzyl)amino)-1H-pyrazole-4-carbonitrile], for which the melting point is 205 to 208 °C. The same compound came in with an inhibition at 1 µM in series [1] of no more than 5%.

`COc1ccc(C(C)C)cc1CNc1[nH]nc(Nc2cccc(Cl)c2)c1C(N)=O` [Compound D94]: the melting point lay in the range of 184 to 194 °C. This compound showed an inhibition at 1 µM in series [1] of 20 to 50%.

`NC(=O)c1c(Nc2ccc(Cl)c(Cl)c2)n[nH]c1NCc1ccc(O)cc1` [Compound D158, 3-((3,4-dichlorophenyl)amino)-5-((4-hydroxybenzyl)amino)-1H-pyrazole-4-carboxamide] showed a melting point of 203 to 209 °C. The same compound had an inhibition at 1 µM in series [1] of no less than 50%.

In the case of `COc1ccc(CNc2n[nH]c(NCc3ccc(O)cc3)c2C(N)=O)cn1` [Compound D112], the melting point lay in the range of 178 to 180 °C. Further, the inhibition at 1 µM in series [1] fell in the range of 20 to 50%.

Turning to `NC(=O)c1c(Nc2ccccc2)n[nH]c1NCc1ccc(O)cc1` [Compound D2], the melting point lay within 214 to 216 °C. The inhibition at 1 µM in series [1] lay in the range of 20 to 50%.

`N#CCc1ccc(Nc2n[nH]c(NCc3ccc(O)cc3)c2C(N)=O)cc1` [Compound D64, 3-((4-(cyanomethyl)phenyl)amino)-5-((4-hydroxybenzyl)amino)-1H-pyrazole-4-carboxamide] gave a melting point of 200 to 203 °C. Also, the inhibition at 1 µM in series [1] was no less than 50%.

As for `N#Cc1c(Nc2cccc(Cl)c2)n[nH]c1NCc1ccc(Cl)cc1O` [Compound C24], the melting point was in the range of 172 to 180 °C. The compound also gave an inhibition at 1 µM in series [1] of 5 to 20%.

`N#Cc1c(Nc2cccnc2)n[nH]c1NCc1ccc(O)cc1` [Compound C33, 5-((4-hydroxybenzyl)amino)-3-(pyridin-3-ylamino)-1H-pyrazole-4-carbonitrile] came in with a melting point of 216 to 222 °C. In addition, the inhibition at 1 µM in series [1] is 20 to 50%.

For `CC1CCN(C2CCN(c3ccc(Nc4n[nH]c(NCc5ccc(O)cc5)c4C(N)=O)cc3)CC2)CC1` [Compound D102, 5-((4-hydroxybenzyl)amino)-3-((4-(4-methyl-[1,4′-bipiperidin]-1′-yl)phenyl)amino)-1H-pyrazole-4-carboxamide], the melting point fell in the range of 220 to 224 °C. Moreover, the inhibition at 1 µM in series [1] is no less than 50%.
